Each structure is given as a SMILES string.

In US12528790B2, “Amide derivative having antiviral activity” (Shionogi & Co., Ltd., priority 2020, dated 2026) one finds EC50 data, which are given here for 20 compounds.

The subject of the first assay is RSV A2 strain. Description: In vitro CPE (CytoPathic Effect) inhibition effect evaluation test, RSV type A. In kind it is cell-based. Conditions: human respiratory syncytial virus, HEp-2. In short, it runs like this:
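HEp-2 cells (2.4×10^5 cells/mL, 2% FBS E-MEM) were infected with RSV alongside 3-fold compound dilutions and incubated at 37 °C, 4 days for A2 and 5 days for B Wash/18537. Viable cells quantified by CellTiter-Glo 2.0 luminescence; EC50 by nonlinear regression as 50% CPE inhibition.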
Turning to `Cc1ccc2c(c1)C1(CCN(CC(F)(F)F)CC1)CN2c1ncc(C(=O)NC2(C(=O)O)C3CC4CC(C3)CC2C4)c(C(F)(F)F)n1` (centres unmarked) [Compound I-136], the 50% effective concentration (EC50) – broadly, the concentration needed to bring the measured effect to its halfway point – was less than 10 nM.

The assay is the same for the next values; noted with them: human respiratory syncytial virus; inhibitory effect against RSV type A (RSV A2 strain), HEp-2 cells, CPE inhibition; read-out: EC50.
`O=C(NC1(C(=O)O)C2CC3CC(C2)CC1C3)c1ccc(-c2cn(CC3COC3)c3cc(OC4CCN(c5ncccn5)CC4)ccc23)nc1C(F)(F)F` (centres unmarked) [Compound I-265]: the concentration for a half-maximal effect (EC50) is less than 10 nM.
`Cc1ccc2c(c1)C1(CCN(c3ncccn3)CC1)CN2c1ncc(C(=O)NC2(C(=O)O)C3CC4CC(C3)CC2C4)c(C(F)(F)F)n1` (centres unmarked) [Compound I-139]: the EC50 was less than 10 nM.
For `O=C(NC1(C(=O)O)C2CC3CC(C2)CC1C3)c1ccc(-c2cn(C3CCCOC3)c3cc(OC4CCN(c5ncccn5)CC4)ccc23)nc1C(F)(F)F` (racemic) [Compound I-367], the EC50 was less than 10 nM.
Still for that read-out and setting: next, `O=C(NC1(C(=O)O)C2CC3CC(C2)CC1C3)c1cnc(-c2cn(C3CCC(F)(F)CC3)c3cc(O[C@@H]4CCN(C5COC5)C4)ccc23)nc1C(F)(F)F` (some centres unmarked) [Compound I-246]: less than 10 nM; `O=C(NC1(C(=O)O)C2CC3CC(C2)CC1C3)c1cnc(-c2cn(C3CCC(F)(F)CC3)c3cc(OC4CCN(c5cc(F)ccn5)CC4)ccc23)nc1C(F)(F)F` (centres unmarked) [Compound I-411]: less than 10 nM; `O=C(NC1(C(=O)NS(=O)(=O)N2CCOCC2)CCCCC1)c1cnc(N2CCc3cc(OCCC4CCOCC4)ccc32)nc1C(F)(F)F` [Compound I-38]: 10 to 100 nM.
The same measure, in the same setting: next, `O=C(NC1(C(=O)O)CCCCC1)c1cnc(N2CCc3cc(OC4CCN(c5ccncc5)CC4)ccc32)nc1C(F)(F)F` [Compound I-84]: 10 to 100 nM.
Still for that read-out and setting: next, `O=C(NC1(C(=O)O)C2CC3CC(C2)CC1C3)c1cnc(-c2cn(C3CCC(F)(F)CC3)c3cc(OC4CCN(c5ncccc5F)CC4)ccc23)nc1C(F)(F)F` (centres unmarked) [Compound I-241]: less than 10 nM; `CNC(=O)C1CC1c1ccc2c(c1)CCN2c1ncc(C(=O)NC2(C(=O)O)C3CC4CC(C3)CC2C4)c(C(F)(F)F)n1` (racemic) [Compound I-216]: 10 to 100 nM.
`O=C(NC1(C(=O)O)C2CC3CC(C2)CC1C3)c1cnc(-c2cn(C3CCC(F)(F)CC3)c3cc(C(=O)N4CCN(c5ncc(F)cn5)CC4)ccc23)nc1C(F)(F)F` (centres unmarked) [Compound I-433]: the EC50 was less than 10 nM.
The same measure, in the same setting: next, `N#CC1(NC(=O)c2cnc(N3CC4(CCOCC4)c4cc(OC5CCN(c6ncccn6)CC5)ccc43)nc2C(F)(F)F)CCCCC1` [Compound I-94]: less than 10 nM; `O=C(NC1(C(=O)O)C2CC3CC(C2)CC1C3)c1cnc(-c2cn(C3CCC(F)(F)CC3)c3cc(OC4CCN(S(=O)(=O)C5CC5)CC4)ccc23)nc1C(F)(F)F` (centres unmarked) [Compound I-259]: less than 10 nM; `O=C(NC1(C(=O)O)C2CC3CC(C2)CC1C3)c1cnc(-c2cn(Cc3ccccc3)c3cc(OC4CCN(c5ncc(F)cn5)CC4)ccc23)nc1C(F)(F)F` (centres unmarked) [Compound I-446]: less than 10 nM.
On to `Cc1csc(COc2ccc3c(c2)CCN3c2ncc(C(=O)NC3(C(=O)O)CCCCC3)c(C(F)(F)F)n2)n1` [Compound I-37], for which the half-maximal effective concentration (EC50) was less than 10 nM.
The same measure, in the same setting: next, `O=C(NC1(C(=O)O)C2CC3CC(C2)CC1C3)c1cnc(-n2c3ccccc3c3cc(OCCC4CCOCC4)ccc32)nc1C(F)(F)F` (centres unmarked) [Compound I-141]: less than 10 nM; `COCCn1cc(-c2ncc(C(=O)NC3(C(=O)O)C4CC5CC(C4)CC3C5)c(C(F)(F)F)n2)c2ccc(OCCC3CCOCC3)cc21` (centres unmarked) [Compound I-130]: less than 10 nM.

The same assay, now with this note: inhibitory effect against RSV type A (RSV A2 strain), HEp-2 cells, CPE inhibition; read-out: EC50.
For the compound `CN(C(=O)c1ccccc1)c1ccc2c(c1)C1(CCOCC1)CN2c1ncc(C(=O)NC2(C(=O)O)C3CC4CC(C3)CC2C4)c(C(F)(F)F)n1` (centres unmarked) [Compound I-343], the EC50 is 10 to 100 nM.
On the same count and under the same terms, then `O=C(NC1(C(=O)O)C2CC3CC(C2)CC1C3)c1cnc(N2CC3(CCOCC3)c3cc(OC4CCN(c5ncccn5)CC4)cc(F)c32)nc1C(F)(F)F` (centres unmarked) [Compound I-332], with less than 10 nM; and `Cc1ccccc1-n1cc(-c2ccc(C(=O)NC3(C(=O)O)C4CC5CC(C4)CC3C5)c(C(F)(F)F)n2)c2ccc(OC3CCN(c4ncccn4)CC3)cc21` (centres unmarked) [Compound I-314], with less than 10 nM.
